Assay results reported in patent US9144595B2, “APLs for treating arthritis” (University of Tennessee Research Foundation, priority 2009, dated 2015).

Key:
DR1 Transgenic mice [1] = experiment: Effect of A12 on CIA in DR1 Transgenic mice (CII plus A12; intravenous A12 after CII-immunization); format: in vivo, mouse; conditions: for Incidence: arthritis incidence
Protocol: Assuming that CII263-270 was key to developing immunity to the intact CII molecule, a number of analog peptides where amino acids within this small segment were substituted with those found in the corresponding sites of nonarthritogenic type I collagen were prepared and tested. […] The APL A12 developed for this study has the following amino acid sequence: LGPKGQTGEBG[IAGNKGDQGPK]GEBGPA (SEQ ID NO: 3) where B=hydroxproline. The core determinant of human CII263-270 is bracketed. The underlined residues are those substituted to produce APL A12. The residues amino terminal and carboxy terminal to the core determinant is from the normal human CII sequence.

DR1 Transgenic mice [2] = experiment: Oral (gavage) APL A12 suppression of CIA in DR1 transgenic mice; format: in vivo, mouse; conditions: for arthritis severity: FIG. 1
TCR-ζ chain = experiment: Phosphorylation of the TCR-ζ chain in CII-specific CD4+ T cells; format: cell-based, mouse; conditions: CD4+ T cells cultured with peptide-pulsed APCs; FIG. 4
Protocol: Purified CD4+ cells from the DR1-TCR tg mice are an excellent source of cells to explore the intracellular signaling pathways induced by either A2 or A12. In preliminary experiments we precipitated proteins with an antibody specific for CD3-ζ (34) to examine for the presence of phosphorylated proteins.
CD4+T cells were cultured with APC's pulsed with the wild-type peptide (WT), A12, or no antigen (No Ag). Proteins were immunoprecipitated with […] of affinity-purified anti-TCR-ζ antibody. The immunoprecipitates were separated by SDS-12%-PAGE, and transferred to nitrocellulose membrane. The membrane was blotted with monoclonal anti-phosphotyrosine antibody (α-pTyr). The positions of the phosphorylated-TCR-ζ are shown by arrows 410, 415. The 21 kDa and 23 kDa bands were not detected in immunoprecipitates from a B cell lymphoma line (data not shown). Bands for the total amount of zeta protein were identical for all three columns. Arrows 410 and 415 are shown denoting 21 kDa and 23 kDa bands, respectively. […] The bands are for No Ag 440, Wt 445, and A12 450. The bands are shown: Wt 425, No Ag 435, A12 430. Bands for zeta protein are shown: No Ag 455, Wt 460, and A12 465.

[3] = test system: splenocytes and lymph node cells from DR1 Transgenic mice; experiment: Cytokine secretion by splenocytes and lymph node cells of DR1 Transgenic mice immunized with CII or Analog A12; format: cell-based, mouse
Description: One of the most important characteristics of the A12 analog peptide was its ability to induce a Th2-type cytokine secretion profile. In this set of experiments, DR1 transgenic mice were immunized with A12 peptide or CII emulsified with CFA. […] In contrast, cells from mice immunized with CII generated predominantly a Th1 response to the wild-type peptide. […] The ability to induce the secretion of Th2 cytokines may explain the profound suppressive effects A12 has on the development of CIA.
One of the most important characteristics of the A12 analog peptide is its ability to reduce a Th1 cytokine profile and induce a Th2-type cytokine secretion profile in humans and in DR1 transgenic mice. In work we have published, DR1 transgenic mice were immunized with A12 peptide or CII emulsified with CFA. […] In contrast, cells from mice immunized with CII generated multiple cytokines, but predominantly a Th1 response to the wild-type peptide. Importantly, although immunized with CII, they responded to A12 with only a Th2 response.

[4] = Immunogen Analog A12, cultured with 100 μg/ml A12
[5] = Immunogen Analog A12, cultured with 100 μg/ml PPD
[6] = Immunogen Analog A12, cultured with 100 μg/ml Wild-type Peptide
[7] = Immunogen Analog A12, cultured with 100 μg/ml α1(II)
[8] = Immunogen CII, cultured with 100 μg/ml A12

## LGPKGQTGEBGIAGAKGDQGPKGEBGPA [APL A12]
DR1 Transgenic mice [1]; 0.01 mg (so in the source) i.v.
  Antibodies to CII: 33 ± 11
DR1 Transgenic mice [1]; 0.5 mg total i.v.
  Antibodies to CII: 24 ± 7 (p ≦ 0.025)
DR1 Transgenic mice [1]; 1 mg total i.v.
  Antibodies to CII: 22 ± 9 (p ≦ 0.025)
DR1 Transgenic mice [1]; DR1-Transgenic mice
  antibody production to CII: significantly decreased
DR1 Transgenic mice [1]; 0.01 mg (so in the source) i.v. on days 10, 12, 14 after CII-immunization
  Incidence: 5/10
DR1 Transgenic mice [1]; 0.5 mg total i.v. on days 10, 12, 14 after CII-immunization
  Incidence: 3/10
DR1 Transgenic mice [1]; 1 mg total i.v. on days 10, 12, 14 after CII-immunization
  Incidence: 1/10 (p = 0.01)
DR1 Transgenic mice [1]; high-responder DR1 mice
  immunity to CII and arthritis: profoundly suppress
DR1 Transgenic mice [1]; mice immunized with CII plus A12
  incidence of arthritis and number of arthritic limbs: dose-related decrease
DR1 Transgenic mice [2]; 10 μg gavaged 8 days over two weeks before CII immunization
  arthritis severity: significantly reduced
DR1 Transgenic mice [2]; 50 μg gavaged 8 days over two weeks before CII immunization
  arthritis severity: significantly reduced
DR1 Transgenic mice [2]; given orally by gavage
  most effective dose: 50 µg/day
DR1 Transgenic mice [2]; low oral dose (10-50 μg), mice transgenic for human DR1
  development of arthritis induced by immunization with bovine CII: protects
DR1 Transgenic mice [2]; mice bearing a transgene for human DR1
  CII induced arthritis: effective in reducing
TCR-ζ chain
  TCR-ζ chain phosphorylation: did not significantly activate
[3]; [4]
  IFN-γ: 0 pg/mL
  IL-10: 808 pg/mL
  Il-4: 31 pg/mL
[3]; [5]
  IFN-γ: 2,225 pg/ml
  IL-10: 248 pg/mL
  Il-4: 0 pg/mL
[3]; [6]
  IFN-γ: 175 pg/mL
  IL-10: 792 pg/mL
  Il-4: 23 pg/mL
[3]; [7]
  IFN-γ: 0 pg/mL
  IL-10: 680 pg/mL
  Il-4: 45 pg/mL
[3]; [8]
  IFN-γ: 0 pg/mL
  IL-10: 610 pg/mL
  Il-4: 40 pg/mL
